# Measured values: patent publication US20250241926A1, “HETEROCYCLIC COMPOUNDS FOR USE IN THE TREATMENT OF CANCER” (ARTIOS PHARMA LIMITED, priority 2021, published 2025)
# Molecular target: T1, Human Polθ polymerase domain (aa1820-2590) (Homo sapiens, UniProt O75417)
# T1 construct: Human Polθ polymerase domain (aa1820-2590) was expressed in E. Coli; made in house; host or cells: E. coli
# T1 sequence (O75417 1820-2590): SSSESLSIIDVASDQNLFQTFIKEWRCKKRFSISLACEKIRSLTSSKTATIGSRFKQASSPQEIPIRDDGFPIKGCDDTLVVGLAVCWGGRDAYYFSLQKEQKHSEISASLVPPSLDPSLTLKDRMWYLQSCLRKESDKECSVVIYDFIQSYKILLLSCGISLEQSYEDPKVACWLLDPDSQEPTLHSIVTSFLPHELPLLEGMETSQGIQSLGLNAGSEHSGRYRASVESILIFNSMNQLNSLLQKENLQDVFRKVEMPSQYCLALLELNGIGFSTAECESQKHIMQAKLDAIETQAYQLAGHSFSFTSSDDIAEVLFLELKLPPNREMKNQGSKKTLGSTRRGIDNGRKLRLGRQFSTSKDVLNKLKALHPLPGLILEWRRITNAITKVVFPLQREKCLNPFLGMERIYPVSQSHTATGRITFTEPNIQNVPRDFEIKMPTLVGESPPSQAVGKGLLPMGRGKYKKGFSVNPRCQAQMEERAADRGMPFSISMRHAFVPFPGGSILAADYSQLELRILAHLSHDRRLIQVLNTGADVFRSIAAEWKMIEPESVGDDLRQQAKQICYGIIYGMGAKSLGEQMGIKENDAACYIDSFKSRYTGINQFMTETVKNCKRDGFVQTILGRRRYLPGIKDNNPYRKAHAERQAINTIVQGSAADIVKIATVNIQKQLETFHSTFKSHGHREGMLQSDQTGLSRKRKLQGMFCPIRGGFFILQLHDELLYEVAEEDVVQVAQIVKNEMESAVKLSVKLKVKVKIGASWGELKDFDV
# Assay: Polθ Polymerase Domain Kinact/Kl Assay (PicoGreen)
# Format: biochemical
# Conditions: covalent inhibitors, kobs vs [I] fit, 0.8 nM Polθ, 100 nM DNA substrate, read-out: Kinact/KI
# Procedure: Polθ Polymerase Domain Kinact/Kl Assay
# A PicoGreen assay was used to measure the Kinact and Kl values of covalent compounds that inhibit the activity of Polθ in vitro.
# Human Polθ polymerase domain (aa1820-2590) was expressed in E. Coli, purified, aliquoted and stored at −80° C. until required. Polθ substrate was generated from a 1.2:1 mix of DNA II Short to DNA II Long to give a final concentration of […] substrate in annealing buffer (20 mM Tris pH 7.5, 50 mM NaCl). The substrate was heated in 50 mL aliquots to 95° C. in a heating block for 5 min before the heating block switched off, the reaction left to cool to rt and stored at −20° C. until required.
# Assay measurements were performed with 1× buffer comprising 25 mM Tris pH 7.5, 12.5 mM NaCl, […], 5% (v/v) glycerol, 0.01% v/v Triton x-100, 0.1 mg/ml BSA, 1 mM DTT. Test compounds were prepared by dilution in 100% DMSO to give a 12 μM intermediate stock of each (100× final top concentration). 100 nL of 23× 1:1.5-fold serial dilutions and a DMSO only control were dispensed using the Tecan dispenser into Greiner 384 well black low volume plates (product code 784076). DMSO concentration was maintained at 1% of the final assay volume by back filling with DMSO.
# 2× Working stock of substrate (200 nM of DNA substrate and […] dNTPs) and enzyme (1.4 nM Polθ) were made up in assay buffer. 5 μL/well of both enzyme and substrate 2× solutions were dispensed using a Tempest dispenser (Formulatrix) into assay plates that had been pre-dispensed with compound to give a final assay concentration of 100 nM DNA substrate, […] dNTPs and 0.8 nM Polθ. To stop the reaction, […] of a solution containing 25 mM Tris-HCl pH 7.5 and 20 mM EDTA was added at […] (t=0, 2.5, 5, 7.5, 10, 12.5, 15, 20, 25, 30, 35, 40, 45, 50, 55 and 60 min) using the Tempest's time delay function. The plates were covered during the time course to prevent evaporation. After completing the assay, 5 μL of detection reagent (25 mM Tris-HCl pH 7.5 and 2.5% (v/v) PicoGreen) was dispensed into the wells using a Tempest liquid handler (Formulatrix) and plates subsequently read on the CLARIOstar Plus (BMG Labtech) using the default optical settings for fluorescein and the auto gain/focus settings.
# All data analysis was carried out using GraphPad Prism V. 8 (GraphPad Software Inc, San Diego, CA) Time course data for each inhibitor concentration was fitted to equation 1 to determine kobs values.^1 Any time points where the control (DMSO alone) reaction was no longer linear were excluded from the analysis.
# A secondary plot of kobs vs [I] is used to determine the Kinact and Kl parameters (for a 2-step covalent inhibitor) by fitting to equation 2.1
# [formula] • 1) Evaluation of Enzyme Inhibitors in Drug Discovery (Ch9), R. A Copeland, Wiley, 2nd Edition 2013.
row,kinact/KI,Compound
1,550000 M⁻¹ s⁻¹,"C=CC(=O)N1CC(O[C@@H]2CN(CCN3CC[C@H](Nc4nc(C)cc(C(F)(F)F)c4C#N)C(=O)N(C)c4cccc(F)c43)C[C@H]2O)C1 (single isomer, unassigned) [Example 65B]"
2,180000 M⁻¹ s⁻¹,"C=CC(=O)N1CCN2CCN(CCN3CC[C@H](Nc4nc(C)cc(C(F)(F)F)c4C#N)C(=O)N(C)c4cccc(F)c43)CC2C1 (single isomer, unassigned) [Example 72A]"
3,3.1e+06 M⁻¹ s⁻¹,"Cc1cc(C(F)(F)F)c(C#N)c(N[C@H]2CCN(CCN3CCOC4(C3)CN(C(=O)/C=C/CN(C)C)C4)c3c(F)cccc3N(C)C2=O)n1 [Example 1, (S,E)-2-((6-(2-(2-(4-(Dimethylamino)but-2-enoyl)-5-oxa-2,8-diazaspiro[3.5]nonan-8-yl)ethyl)-7-fluoro-1-methyl-2-oxo-1,2,3,4,5,6-hexahydrobenzo[b][1,4]diazocin-3-yl)amino)-6-methyl-4-(trifluoromethyl)nicotinonitrile]"
4,510000 M⁻¹ s⁻¹,"Cc1cc(C(F)(F)F)c(C#N)c(N[C@H]2CCN(CCN3CCOC4(CCN(C(=O)/C=C/CN(C)C)C4)C3)c3c(F)cccc3N(C)C2=O)n1 (stereo partly drawn) [Example 2, 2-(((S)-6-(2-(2-((E)-4-(Dimethylamino)but-2-enoyl)-6-oxa-2,9-diazaspiro[4.5]decan-9-yl)ethyl)-7-fluoro-1-methyl-2-oxo-1,2,3,4,5,6-hexahydrobenzo[b][1,4]diazocin-3-yl)amino)-6-methyl-4-(trifluoromethyl)nicotinonitrile]"
5,1.1e+06 M⁻¹ s⁻¹,"Cc1cc(C(F)(F)F)c(C#N)c(N[C@H]2CCN(CCN3CCOC4(C3)CN(C(=O)/C=C/CN(C)C)C4)c3ccccc3N(C)C2=O)n1 [Example 3, (S,E)-2-((6-(2-(2-(4-(Dimethylamino)but-2-enoyl)-5-oxa-2,8-diazaspiro[3.5]nonan-8-yl)ethyl)-1-methyl-2-oxo-1,2,3,4,5,6-hexahydrobenzo[b][1,4]diazocin-3-yl)amino)-6-methyl-4-(trifluoromethyl)nicotinonitrile]"
6,300000 M⁻¹ s⁻¹,"Cc1cc(C(F)(F)F)c(C#N)c(N[C@H]2CCN(CCN3CC4(C3)CN(C(=O)/C=C/CN(C)C)C4)c3ccccc3N(C)C2=O)n1 [Example 4, (S,E)-2-((6-(2-(6-(4-(Dimethylamino)but-2-enoyl)-2,6-diazaspiro[3.3]heptan-2-yl)ethyl)-1-methyl-2-oxo-1,2,3,4,5,6-hexahydrobenzo[b][1,4]diazocin-3-yl)amino)-6-methyl-4-(trifluoromethyl)nicotinonitrile]"
7,110000 M⁻¹ s⁻¹,"Cc1cc(C(F)(F)F)c(C#N)c(N[C@H]2CCN(CCN3CCN(C(=O)/C=C/CN(C)C)CC3)c3ccccc3N(C)C2=O)n1 [Example 5, (S,E)-2-((6-(2-(4-(4-(Dimethylamino)but-2-enoyl)piperazin-1-yl)ethyl)-1-methyl-2-oxo-1,2,3,4,5,6-hexahydrobenzo[b][1,4]diazocin-3-yl)amino)-6-methyl-4-(trifluoromethyl)nicotinonitrile]"
8,980000 M⁻¹ s⁻¹,"C=CC(=O)N1CC2(CN(CCN3CC[C@H](Nc4nc(C)cc(C(F)(F)F)c4C#N)C(=O)N(C)c4cccc(F)c43)CCN2C)C1 [Example 6, (S)-2-((6-(2-(2-Acryloyl-5-methyl-2,5,8-triazaspiro[3.5]nonan-8-yl)ethyl)-7-fluoro-1-methyl-2-oxo-1,2,3,4,5,6-hexahydrobenzo[b][1,4]diazocin-3-yl)amino)-6-methyl-4-(trifluoromethyl)nicotinonitrile]"
9,460000 M⁻¹ s⁻¹,"C=CC(=O)N1CC2(CN(CCN3CC[C@H](Nc4nc(C)cc(C(F)(F)F)c4C#N)C(=O)N(C)c4ccc(Cl)cc43)C2)C1 [Example 7, (S)-2-((6-(2-(6-Acryloyl-2,6-diazaspiro[3.3]heptan-2-yl)ethyl)-8-chloro-1-methyl-2-oxo-1,2,3,4,5,6-hexahydrobenzo[b][1,4]diazocin-3-yl)amino)-6-methyl-4-(trifluoromethyl)nicotinonitrile]"
10,490000 M⁻¹ s⁻¹,"C=CC(=O)N1CC2(CCN(CCN3CC[C@H](Nc4nc(C)cc(C(F)(F)F)c4C#N)C(=O)N(C)c4cccc(F)c43)CC2)C1 [Example 8, (S)-2-((6-(2-(2-Acryloyl-2,7-diazaspiro[3.5]nonan-7-yl)ethyl)-7-fluoro-1-methyl-2-oxo-1,2,3,4,5,6-hexahydrobenzo[b][1,4]diazocin-3-yl)amino)-6-methyl-4-(trifluorometh-yl)nicotinonitrile]"
11,300000 M⁻¹ s⁻¹,"C=CC(=O)N1CC2(CCCN(CCN3CC[C@H](Nc4nc(C)cc(C(F)(F)F)c4C#N)C(=O)N(C)c4cccc(F)c43)C2)C1 [Example 9, (S)-2-((6-(2-(2-Acryloyl-2,6-diazaspiro[3.5]nonan-6-yl)ethyl)-7-fluoro-1-methyl-2-oxo-1,2,3,4,5,6-hexahydrobenzo[b][1,4]diazocin-3-yl)amino)-6-methyl-4-(trifluorometh-yl)nicotinonitrile]"
12,320000 M⁻¹ s⁻¹,"C=CC(=O)N1CC(OC2CCN(CCN3CC[C@H](Nc4nc(C)cc(C(F)(F)F)c4C#N)C(=O)N(C)c4cccc(F)c43)CC2)C1 [Example 13, (S)-2-((6-(2-(4-((1-Acrylo-ylazetidin-3-yl)oxy)piper-idin-1-yl)ethyl)-7-fluoro-1-methyl-2-oxo-1,2,3,4,5,6-hexahydrobenzo[b][1,4]diazocin-3-yl)amino)-6-methyl-4-(trifluorometh-yl)nicotinonitrile]"
13,540000 M⁻¹ s⁻¹,"C=CC(=O)N1CC(N2CCN(CCN3CC[C@H](Nc4nc(C)cc(C(F)(F)F)c4C#N)C(=O)N(C)c4cccc(F)c43)C[C@H]2C)C1 [Example 16, 2-(((S)-6-(2-((R)-4-(1-Acryloylazetidin-3-yl)-3-methylpiperazin-1-yl)-ethyl)-7-fluoro-1-methyl-2-oxo-1,2,3,4,5,6-hexa-hydrobenzo[b][1,4]diazocin-3-yl)amino)-6-methyl-4-(trifluorometh-yl)nicotinonitrile]"
14,570000 M⁻¹ s⁻¹,"C=CC(=O)N1CC(N2CCN(CCN3CC[C@H](Nc4nc(C)cc(C(F)(F)F)c4C#N)C(=O)N(C)c4cccc(F)c43)C[C@@H]2C)C1 [Example 17, 2-(((S)-6-(2-((S)-4-(1-Acryloylazetidin-3-yl)-3-methylpiperazin-1-yl)-ethyl)-7-fluoro-1-methyl-2-oxo-1,2,3,4,5,6-hexa-hydrobenzo[b][1,4]diazocin-3-yl)amino)-6-methyl-4-(trifluorometh-yl)nicotinonitrile]"
15,500000 M⁻¹ s⁻¹,"C=CC(=O)N1CC(N2CCN(CCN3CC[C@H](Nc4nc(C)cc(C(F)(F)F)c4C#N)C(=O)N(C)c4ccccc43)CC2)C1 [Example 20, (S)-2-((6-(2-(4-(1-Acrylo-ylazetidin-3-yl)piperazin-1-yl)ethyl)-1-methyl-2-oxo-1,2,3,4,5,6-hexa-hydrobenzo[b][1,4]diazocin-3-yl)amino)-6-methyl-4-(trifluorometh-yl)nicotinonitrile]"
